From patent US20180194822A1, “DISRUPTION OF THE INTERACTION BETWEEN AMYLOID BETA PEPTIDE AND DIETARY LIPIDS” (THE TRUSTEES OF COLUMBIA UNIVERSITY IN THE CITY OF NEW YORK, priority 2015, published 2018)
Entries after “also recorded” stand apart in the source; their conditions may differ.

Tests used:
[1] = system: APPsw+ mice; assay: Novel object recognition (NOR) and activity during NOR training after intranasal SDPC; format: in vivo, mouse; conditions: 30 days intranasal escalated dose (0.5 then 2 mg/kg), SDPC vs saline treated APPsw+
[2] = system: APPsw+ mice; assay: Open Field testing after intranasal SDPC; format: in vivo, mouse; conditions: 10 days intranasal low dose; does not reach significance
Description: FIGS. 4A-4D. 10 days treatment with low dose SDPC. (A) After 10 days treatment (Tx) with low dose phosphatidylcholine (PC) containing docosahexaenoyl (22:6) and stearoyl (18:0) acyl chains, 18:0-22:6 PC; 1-stearoyl-2-docosahexaenoyl-sn-glycero-3-phosphocholine (CAS Number 59403-52-0; Synonyms: 1-octadecanoyl-2-(4Z,7Z,10Z,13Z,16Z,19Z-docosahexaenoyl)-sn-glycero-3-phosphocholine and PC(18:0/22:6(4Z,7Z,10Z,13Z,16Z,19Z))) (SDPC) intranasally, nesting score was assessed as described before (114). The number of nestlettes (from 3 initially placed in cage) was estimated and exact weight of remaining nestlettes was determined in grams (g) from initial 3 nestlettes (approximately 2 g). (B) Activity during novel object recognition (NOR) training was assessed after 10 days intranasal SDPC. Grooming behavior, free rearing, wall rearing and center crossing events are shown and were summed in total events. (C) Time spent with each identical object during NOR training. (D) Activity during Open Field testing 24 hours after NOR training (note, no difference in novel object discrimination (NOD) index was found. Standard error is shown for means of Saline treated APPsw+(control) (n=4); SDPC treated APPsw+(n=5) and wild type receiving no treatment (n=4). Significance was determined for […] using Student's t-test. […]

[3] = system: APPsw+ mice; assay: Nesting behavior after intranasal SDPC; format: in vivo, mouse; conditions: 10 days intranasal low dose 0.5 mg/kg every other day, vs saline treated APPsw+
Description: FIGS. 4A-4D. 10 days treatment with low dose SDPC. (A) After 10 days treatment (Tx) with low dose phosphatidylcholine (PC) containing docosahexaenoyl (22:6) and stearoyl (18:0) acyl chains, 18:0-22:6 PC; 1-stearoyl-2-docosahexaenoyl-sn-glycero-3-phosphocholine (CAS Number 59403-52-0; Synonyms: 1-octadecanoyl-2-(4Z,7Z,10Z,13Z,16Z,19Z-docosahexaenoyl)-sn-glycero-3-phosphocholine and PC(18:0/22:6(4Z,7Z,10Z,13Z,16Z,19Z))) (SDPC) intranasally, nesting score was assessed as described before (114). The number of nestlettes (from 3 initially placed in cage) was estimated and exact weight of remaining nestlettes was determined in grams (g) from initial 3 nestlettes (approximately 2 g). (B) Activity during novel object recognition (NOR) training was assessed after 10 days intranasal SDPC. […] (D) Activity during Open Field testing 24 hours after NOR training (note, no difference in novel object discrimination (NOD) index was found. Standard error is shown for means of Saline treated APPsw+(control) (n=4); SDPC treated APPsw+(n=5) and wild type receiving no treatment (n=4). Significance was determined for […] using Student's t-test.
FIGS. 5A-5B. […] (A) After 30 days treatment (Tx) with low dose SDPC intranasally, nesting score was assessed as described (114). […] (B) Activity during NOR training was assessed after 10 days intranasal SDPC. […] Significance was determined for […] using Student's t-test. […]

[4] = system: APPsw+ mice; assay: Novel object recognition (NOR) and activity during NOR training after intranasal SDPC; format: in vivo, mouse
Description: FIGS. 4A-4D. 10 days treatment with low dose SDPC. (A) After 10 days treatment (Tx) with low dose phosphatidylcholine (PC) containing docosahexaenoyl (22:6) and stearoyl (18:0) acyl chains, 18:0-22:6 PC; 1-stearoyl-2-docosahexaenoyl-sn-glycero-3-phosphocholine (CAS Number 59403-52-0; Synonyms: 1-octadecanoyl-2-(4Z,7Z,10Z,13Z,16Z,19Z-docosahexaenoyl)-sn-glycero-3-phosphocholine and PC(18:0/22:6(4Z,7Z,10Z,13Z,16Z,19Z))) (SDPC) intranasally, nesting score was assessed as described before (114). The number of nestlettes (from 3 initially placed in cage) was estimated and exact weight of remaining nestlettes was determined in grams (g) from initial 3 nestlettes (approximately 2 g). (B) Activity during novel object recognition (NOR) training was assessed after 10 days intranasal SDPC. Grooming behavior, free rearing, wall rearing and center crossing events are shown and were summed in total events. (C) Time spent with each identical object during NOR training. (D) Activity during Open Field testing 24 hours after NOR training (note, no difference in novel object discrimination (NOD) index was found. Standard error is shown for means of Saline treated APPsw+(control) (n=4); SDPC treated APPsw+(n=5) and wild type receiving no treatment (n=4). Significance was determined for p>0.05 using Student's t-test.
FIGS. 5A-5B. Nesting and activity after 30 days treatment with escalating dose SDPC. (A) After 30 days treatment (Tx) with low dose SDPC intranasally, nesting score was assessed as described (114). The number of nestlettes remaining (from 3 initially placed in cage) was estimated and exact weight of remaining nestlettes was determined in grams (g remaining) from initial 3 nestlettes (approximately 2 g). (B) Activity during NOR training was assessed after 10 days intranasal SDPC. Grooming behavior, free rearing, wall rearing and center crossing events were summed in total events. Standard error is shown for means of Saline treated APPsw+(control) (n=4); SDPC treated APPsw+(n=5) and wild type receiving no treatment (n=4). Significance was determined for […] using Student's t-test.
FIGS. 6A-6B. 30 days treatment with escalating dose SDPC. (A) Mice were placed in a box with two identical objects for 10 minutes on the training day 1. […] One object was replaced with a novel object for testing (NOD index). The same data is shown to scale in FIG. 6B (Testing (immediate)). Twenty-four hours later (Testing (24 hours)), mice were placed in the same context with one of the original identical objects (Familiar) and a second novel object (Novel). The time spent with each object was recorded. (B) For testing, novel object discrimination (NOD index) is assessed using the equation [(time novel)/(time familiar+time novel)].
NOD index of 0.5 represents equal time with each object. NOD>0.5 represents more time spent with novel object. Standard error is shown for means of Saline treated APPsw+(control) (n=4); SDPC treated APPsw+(n=5) and wild type receiving no treatment (n=4). Significance was determined for p>0.05 using Student's t-test.
SDPC was obtained from Avanti Polar Lipids (850472C) in chloroform, dried under vacuum conditions and resuspended in 0.9% saline (0.9% sodium chloride injection, USP, NDC 0409-7983-61, Hospira) containing 0.2% (weight:volume) methyl cellulose (average Mn 40,000, viscosity: 400 cP, CAS 9004-67-5, Sigma-Aldrich 274429) to aid in solubilization. A control solution of 0.9% saline containing 0.2% methyl cellulose was prepared at the same time without SDPC. A concentration of 3 mg/ml was used for doses 1-15 and 12 mg/ml was used for doses 16-18 (FIG. 3). Brief (3-5 minutes) bath sonication was used to improve solubility of 12 mg/ml concentration.
Mice were treated for 10 days at a low dose of SDPC intranasally administered 2.5 uL each nostril (5 μL total dose) for 0.5 mg/kg every other day assuming average mouse weight of 30 g (0.03 kg) (FIG. 3). […]

[5] = biological target: T1, Aβ42 peptide fluorescently tagged with FAM (Homo sapiens, UniProt P05067); assay: Lipid binding assay: Aβ42-FAM on lipid-coated maleic anhydride plates
T1 construct: SensoLyte Fluorescent β-Amyloid1-42 Sampler Kit, Anaspec; purchased Anaspec SensoLyte Fluorescent β-Amyloid1-42 Sampler Kit (catalogue number not given)
Description: Maleic Anhydride Activated plates (Pierce Amine-binding, 96-well plates, Thermo Scientific) were washed in wash buffer (PBS: Phosphate buffered saline, 0.15 M sodium chloride, pH 7.2 containing 0.05% Tween-20 Detergent, PBST, Thermo Scientific) 4 times to activate reactive maleic anhydride functional group. Amine containing lipids were PE containing docosahexaenoyl (22:6) and stearoyl (18:0) acyl chains (22:6/18:0 PE) or two stearoyl acyl chains (di18:0 PE) were from Avanti Polar Lipids. 22:6/18:0 PE was obtained in chloroform, dried down and solubilized at 200 pmol/μL in 1% n-octylglucoside (NOG, Santa Cruz) in PBS and sonicated for 5 minutes. di18:0 PE was obtained as a powder, solubilized at 200 pmol/μl in 1% NOG and bath sonicated for 5 minutes. […] Plates were then washed 4 times in PBST and fluorescence was detected using Tecan Infinite 200 at wavelengths 494/521 (excitation, emission) using the Optimal Gain setting. […]
(§1) Lipid containing long chain polyunsaturated fatty acid 22:6, docosahexaenoic acid (DHA) and an amine containing headgroup, phosphatidylethanoloamine (PE) was bound to maleic anhydride activated plates which bind to free primary amine functional groups at neutral and alkaline pH. […] Specific binding was calculated by subtracting background binding of di18:0 PE.

[6] = biological target: Aβ:ApoE:lipid binding complex (Homo sapiens, UniProt P05067); assay: ApoE binding assay: fluorescent Aβ42 on ApoE-coated plates in presence of lipid; design: SensoLyte Fluorescent β-Amyloid1-42 Sampler Kit, Anaspec; HiLyte Fluor (fluorescent label); purchased ApoE: rPeptide; labelled Aβ: Anaspec; conditions: only at very high concentrations of Aβ
Description: Plates were prepared as above and incubated with a constant amount of apolipoprotein E (ApoE, rPeptide) at 12.5 pmol/well FIG. 2A or 4 pmol/well FIG. 2B for 1 hour at room temperature with shaking. Plates were then blocked for 1 hour and washed with PB ST. Aβ labled with HiLyte (Anaspec) was prepared as above and mixed with increasing amount of lipid in constant concentration of NOG (0.0034%) in SuperBlock Blocking buffer and incubated overnight at 4° C. Binding was read as above at 503/528 excitation/emission).
Assays were done in triplicate wells and reported as mean+/−standard error. Binding kinetics and best fit curve fitting were accomplished using Prism Graphpad software.
Specific binding was determined by subtracting non-specific binding to the plate in absence of ApoE (no ApoE, 0).

[7] = biological target: T2, Aβ42-FAM bound to lipids containing 22:6 (Homo sapiens, UniProt P05067); assay: Competition of Aβ42-FAM binding to plate-bound 22:6 lipid; conditions: competitor 5×, 1 μM
T2 construct: SensoLyte Fluorescent β-Amyloid1-42 Sampler Kit, Anaspec; purchased Anaspec SensoLyte Fluorescent β-Amyloid1-42 Sampler Kit (catalogue number not given)
Description: Maleic Anhydride Activated plates (Pierce Amine-binding, 96-well plates, Thermo Scientific) were washed in wash buffer (PBS: Phosphate buffered saline, 0.15 M sodium chloride, pH 7.2 containing 0.05% Tween-20 Detergent, PBST, Thermo Scientific) 4 times to activate reactive maleic anhydride functional group. Amine containing lipids were PE containing docosahexaenoyl (22:6) and stearoyl (18:0) acyl chains (22:6/18:0 PE) or two stearoyl acyl chains (di18:0 PE) were from Avanti Polar Lipids. […] Plates were then washed 4 times in PBST and fluorescence was detected using Tecan Infinite 200 at wavelengths 494/521 (excitation, emission) using the Optimal Gain setting.
Scrambled Aβ or unlabeled Aβ42 peptides (Anaspec) were diluted to 100 μM as above and then diluted in SuperBlock Blocking buffer to 1 μM, incubated for 1 hour at room temperature. Plates were washed and FAM fluorescence was read as above.
as §1

[8] = 30 days intranasal escalated dose

Compound: CC/C=C\C/C=C\C/C=C\C/C=C\C/C=C\C/C=C\CCC(=O)O[C@H](COC(=O)CCCCCCCCCCCCCCCCC)COP(=O)([O-])OCC[N+](C)(C)C [SDPC, 1-stearoyl-2-docosahexaenoyl-sn-glycero-3-phosphocholine]
- number of wall rears and total activity events [1]: significant improvement
- activity in the open field test following NOR testing [2]: continued improvement of activity level; also recorded: restored to the level of wild type non-treated mice
- nesting behavior [3]: trend toward improvement; also recorded: non-significant trend for improvement
- NOR discrimination (NOD index), tested 24 hours after training ([4]; 10 days intranasal low dose): no discrimination was found; also recorded: no difference
- activity during NOR training (wall rearing, free rearing, total activity level) ([4]; 10 days intranasal low dose 0.5 mg/kg every other day, vs saline treated APPsw+, 0.5 mg/kg): trend toward improvement; also recorded: non-significant trend for improvement
- exploration: time spent with identical objects during NOR training ([4]; 10 days intranasal low dose 0.5 mg/kg every other day, 0.5 mg/kg): trend toward improved exploratory behavior; also recorded: non-significant trend toward exploration activity
- NOR deficits: time spent with a novel object [4, 8]: significant amelioration
- novel object discrimination index (NOD index) [4, 8]: significant changes were not observed; also recorded: trend for amelioration
- discrimination of one displaced identical object (hippocampal function), training day 2 ([4]; 30 days intranasal escalating dose): no discrimination was determined

Compound: CCCCCCCCCCCCCCCCCC(=O)OC[C@H](COP(=O)(O)OCCN)OC(=O)CCCCCCCCCCCCCCCCC [di18:0 PE]
- binding of Aβ42-FAM to plate-bound lipid ([5]; for di18:0: concentrations 10,000 pmol/well and below): very low binding activity
- binding of Aβ42-FAM to plate-bound lipid at the highest concentrations ([5]; highest lipid concentrations (above 10,000 pmol/well)): modest binding
- Aβ42-FAM binding to apoE in presence of lipid [6]: only very minimally

Compound: unlabeled Aβ42 peptide: unlabeled Aβ42 peptide (Anaspec) used as competitor
- disruption of Aβ42-FAM binding to 22:6 lipid by competitor peptide [7]: competitively disrupted
